# Measured values published in US20060142251A1, “Anti-microbial agents derived from methionine sulfoximine analogues” (priority 2002, published 2006).
# Values joined by “and” are separate entries in the source; they are usually repeats but may differ in a detail not shown here. Equal values may be shown once. Read-outs that look alike come from different tables or passages of the source.
# Legend:
# M. tuberculosis Erdman = experiment: M. tuberculosis growth in broth culture; assay type: cell-based; details: for inhibition of M. tuberculosis growth in broth culture in comparison with MSO / inhibition of M. tuberculosis in broth culture relative to MSO at each of the three concentrations: 10, 100, 1000 μM; for inhibition of M. tuberculosis growth in broth culture in comparison with MSO: 6 weeks (FIG. 4); for inhibition of M. tuberculosis in broth culture relative to MSO at each of the three concentrations / inhibition of M. tuberculosis growth in broth culture: Example 7; for inhibition of M. tuberculosis growth in broth culture: 10, 100 or 1000 μM, 6 weeks
# [1] = Source text: Exemplary, non-limiting GS inhibitors of the present invention and their relevant properties are summarized below: [drawing 1]
# [2] = cited from earlier work; for metabolism: do not form the toxic products formed in vivo from MSO
# [3] = α-Et-MSO: convulsions in a minority of mice vs MSO dose giving 100% of mice; cited from earlier work
# [4] = in vivo; cited from earlier work
# [5] = system: M. tuberculosis Erdman in human macrophages (THP-1 cells); details: 20, 200, 2000 μM, CFU to day 5 (FIG. 5)
# [6] = doses that fully inhibit glutathione synthesis; cited from earlier work
# [7] = system: M. tuberculosis Erdman strain; assay type: in vivo; details: for reduction of CFU in lung and spleen below the level obtained with MSO: from day 14
# Remark: listed apart in the source
Structure (SMILES),inhibition of M. tuberculosis growth in broth culture in comparison with MSO (M. tuberculosis Erdman),inhibition of M. tuberculosis in broth culture relative to MSO at each of the three concentrations (M. tuberculosis Erdman),inhibition of M. tuberculosis growth in broth culture (M. tuberculosis Erdman),Estimated Dose of L Isomer that Induces Convulsions in Mice (Relative to MSO) ([1]; Table 1),Estimated Dose of L Isomer that Induces Convulsions in Mice (Relative to MSO) ([1]; Table 3),metabolism [2],Metabolized In Vivo [2],"dose that causes convulsions in mice, higher than MSO [3] [fold]",entry into the brain compared with MSO [4],inhibition of M. tuberculosis growth in human macrophages [5],also measured
"CCC(N)(CCS(C)(=N)=O)C(=O)O (racemic) [α-Et-MSO, α-ethyl-DL-methionine-SR-sulfoximine]",as inhibitory to M. tuberculosis growth as MSO,as inhibitory or slightly more inhibitory than MSO,inhibited M. tuberculosis,>16,≧16,resistant to metabolism,−,16,do not enter the brain as readily as MSO,readily inhibited M. tuberculosis growth in human macrophages,
"CC(N)(CCS(C)(=N)=O)C(=O)O (racemic) [α-Me-MSO, α-methyl-DL-methionine-SR-sulfoximine]",as inhibitory to M. tuberculosis growth as MSO,slightly less inhibitory than MSO,inhibited M. tuberculosis,8,8,resistant to metabolism,−,~8,do not enter the brain as readily as MSO,readily inhibited M. tuberculosis growth in human macrophages,
"CCCCS(=N)(=O)CCC(N)C(=O)O [BSO, D, L-Buthionine-SR-Sulfoximine]",,,did not,,,,,,,,animals killed [6]: 100%
"NNC(=O)c1ccncc1 [INH, isoniazid]",,,,,,,,,,,"reduction of CFU in lung and spleen below the level obtained with MSO ([7]; INH 1 mg kg^−1 day^−1 oral): ~1.5 logs; reduction of CFU in lung and spleen below the level obtained with MSO ([7]; INH 4 mg kg^−1 day^−1 oral): ~2.5 logs; protection from weight loss ([7]; […], MSO 1.5, INH 1 or 4 mg kg^−1 day^−1): protected animals from weight loss"
"CS(=N)(=O)CC[C@H](N)C(=O)O (stereo partly drawn) [MSO, L-methionine-SR-sulfoximine]",,,inhibited M. tuberculosis,1,1,,,,,,"fewer CFU of M. tuberculosis in lung and spleen than control animals ([7]; in vivo): approximately 1 log unit; protection from weight loss ([7]; in vivo): protected animals from weight loss; reduction of CFU of M. tuberculosis in lungs and spleen compared with control animals ([7]; in vivo): ~0.7 logs; reduction of bacterial counts in lung and spleen ([7]; in vivo): effective at reducing bacterial counts; survival of the 10 week observation period ([7]; in vivo): 100% and 80% and 60%; weight gain versus untreated controls ([7]; in vivo): gained significantly more weight than untreated controls; weight loss versus untreated controls ([7]; in vivo): protected from weight loss; reduction of CFU in lungs and spleen compared with untreated controls ([7]; in vivo, ip): 2.5 logs; MTD in the presence of ascorbate relative to absence of ascorbate (guinea pig, in vivo): 4 fold; maximum tolerated dose for guinea pigs infected with M. tuberculosis (guinea pig, in vivo): 1.5 mg kg^−1 day^−; tolerability (guinea pig, in vivo): well-tolerated"
O=C1O[C@H]([C@@H](O)CO)C(O)=C1O [ascorbate],,,,,,,,,,,"total dose well tolerated by guinea pigs (i.p., 9 mmoles kg^−1 day^−1 not well tolerated): 3 mmol/kg/day"
